# From patent US9115092B2, “Substituted quinazoline and pyrido-pyrimidine derivatives” (Asana Biosciences, LLC, priority 2010, dated 2015)
# How the values were obtained:
# mTOR kinase = molecular target: T1, mTOR kinase (Homo sapiens, UniProt P42345); experiment: mTOR kinase TR-FRET assay; type: biochemical; conditions: read-out: mTO R
# T1 construct: purchased Millipore, USA
# Outline: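 TR-FRET read-out (340 nm excitation, 615/665 nm emission) of Thr389 phosphorylation of a ULight-labeled p70 S6K peptide (50 nM) by mTOR, 20 μM ATP, 60 min room temperature after 60 min compound preincubation. Buffer HEPES pH 7.5 with MnCl2, EGTA; IC50 by sigmoidal dose-response.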
# [1] = system: pAKT(T308) (phosphorylated at threonine 308), PC3 cells; experiment: In-cell Western assay, pAKT(T308) in PC3 cells; type: cell-based; conditions: Homo sapiens, PC-3, In-cell Western
# Description: (§1) Cells from human prostate cancer cell line PC3 (American Type Culture Collection (ATCC), Manassas, Va. 20108 USA) were seeded at an optimal density of 22,000 cell/well in 96-well plates containing Ham's F12K medium (90 μL) and incubated overnight. The compound dilutions were carried out in 100% DMSO followed by a dilution in the medium. Test compounds were added in serial dilutions to the wells and incubated for 2 h. The cells were washed and fixed with 4% paraformaldehyde. After incubation at room temperature for 1 h in the dark, blocking was done for 2 h at room temperature. Primary antibodies for phosphorylated (p) AKT(5473) (phosphorylated at serine 473), pAKT(T308) (phosphorylated at threonine 308) and for pS6RP(S235/236) (phosphorylated at serine 235/236) (commercially available from Cell Signaling Technology®, whose protocol was followed for the in-cell western assay, were diluted to the required concentration and added to the corresponding wells followed by overnight incubation at 4° C. Eu-labeled rabbit (PE) (Perkin-Elmer USA catalog #AD0106) secondary antibody was added and incubated for 2 h at room temperature. Delfia® enhancement solution (cat #1244-105, Perkin Elmer USA) was subsequently added to the plate before taking the reading at 615 nm with excitation wavelength of 340 nm, after which 0.5 μg/mL of Hoechst® 33258 dye (Catalog #86140-5, Sigma) was added to the plate and fluorescence emission was read at 460 nm with 355 nm excitation, to evaluate the correction factor. IC50 values were calculated using a sigmoidal dose-response curve fit in GraphPad Prism® v5 software.
# [2] = molecular target: T2, PI3Kα (wild-type), P110/P85α (Homo sapiens, UniProt P42336); experiment: PI3 Kinase TR-FRET assay, PI3Kα (wild-type); type: biochemical
# T2 construct: made in house; host or cells: SF9 insect cells
# Outline: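 TR-FRET read-out of PIP3 formation via biotin-PIP3 displacement (665/615 nm ratio) gave IC50 curves. Enzyme: 5 ng wild-type P110/P85α from Sf9 cells, 60 min RT with compound and PIP2 (MgCl2 40 mM, DTT 5 mM), then 30 min RT kinase reaction at 10 μM ATP and 10 μM PIP2.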
# PC3 cells = experiment: XTT assay for cell viability, PC3 cells; type: cell-based, human; conditions: Homo sapiens, PC-3, cell viability
# Outline: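 PC3 cells seeded at 1000 cells/well, grown 24 h, then exposed to serial dilutions of compound for 96 h. Viability read by XTT dye at 37° C, absorbance 465 nm. EC50 from sigmoidal dose-response fit.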
# [3] = system: pAKT(5473) (phosphorylated at serine 473), PC3 cells; experiment: In-cell Western assay, pAKT(5473) in PC3 cells; type: cell-based; conditions: Homo sapiens, PC-3, In-cell Western, read-out: pAkt-S473
# Description: as §1
# [4] = system: pS6RP(S235/236), PC3 cells; experiment: In-cell Western assay, pS6RP(S235/236) in PC3 cells; type: cell-based, human; conditions: Homo sapiens, PC-3, In-cell Western
# Outline: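 Overnight-seeded PC3 cells were treated 2 h with serially diluted compound, then fixed and immunostained with phospho-specific primary antibodies and Eu-labelled secondary. Time-resolved Eu signal read at 615 nm (ex 340 nm), normalised by Hoechst 33258 staining (ex 355/em 460 nm); IC50 from sigmoidal dose-response fit.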
# T2 sequence (P42336 whole entry): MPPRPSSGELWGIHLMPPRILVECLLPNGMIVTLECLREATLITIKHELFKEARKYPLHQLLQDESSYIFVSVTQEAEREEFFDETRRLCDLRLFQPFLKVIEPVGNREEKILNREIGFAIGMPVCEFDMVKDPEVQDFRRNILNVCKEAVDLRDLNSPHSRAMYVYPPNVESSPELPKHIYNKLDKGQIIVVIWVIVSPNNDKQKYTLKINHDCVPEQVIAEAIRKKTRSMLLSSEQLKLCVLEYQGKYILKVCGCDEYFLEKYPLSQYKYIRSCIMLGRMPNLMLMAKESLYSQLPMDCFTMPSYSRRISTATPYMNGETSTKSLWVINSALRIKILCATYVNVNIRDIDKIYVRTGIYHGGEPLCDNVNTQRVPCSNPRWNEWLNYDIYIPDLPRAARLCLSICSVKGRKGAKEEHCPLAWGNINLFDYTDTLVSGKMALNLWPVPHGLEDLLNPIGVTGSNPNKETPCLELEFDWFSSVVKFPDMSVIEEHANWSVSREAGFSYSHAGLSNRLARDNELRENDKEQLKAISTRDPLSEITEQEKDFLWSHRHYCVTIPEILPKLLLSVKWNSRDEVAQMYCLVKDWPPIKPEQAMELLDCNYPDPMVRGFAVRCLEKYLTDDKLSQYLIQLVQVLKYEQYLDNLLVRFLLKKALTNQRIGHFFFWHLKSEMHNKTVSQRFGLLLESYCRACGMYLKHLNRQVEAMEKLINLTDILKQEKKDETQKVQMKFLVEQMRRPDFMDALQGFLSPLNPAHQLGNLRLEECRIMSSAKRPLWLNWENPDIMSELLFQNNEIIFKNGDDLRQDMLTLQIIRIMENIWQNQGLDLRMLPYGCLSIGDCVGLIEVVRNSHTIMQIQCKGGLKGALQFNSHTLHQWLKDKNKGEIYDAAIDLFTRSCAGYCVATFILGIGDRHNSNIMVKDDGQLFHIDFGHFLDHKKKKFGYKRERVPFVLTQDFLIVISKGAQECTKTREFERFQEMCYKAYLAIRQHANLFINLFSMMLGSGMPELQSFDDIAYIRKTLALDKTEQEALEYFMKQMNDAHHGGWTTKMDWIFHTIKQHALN
# T2 sequence (P27986 whole entry partner): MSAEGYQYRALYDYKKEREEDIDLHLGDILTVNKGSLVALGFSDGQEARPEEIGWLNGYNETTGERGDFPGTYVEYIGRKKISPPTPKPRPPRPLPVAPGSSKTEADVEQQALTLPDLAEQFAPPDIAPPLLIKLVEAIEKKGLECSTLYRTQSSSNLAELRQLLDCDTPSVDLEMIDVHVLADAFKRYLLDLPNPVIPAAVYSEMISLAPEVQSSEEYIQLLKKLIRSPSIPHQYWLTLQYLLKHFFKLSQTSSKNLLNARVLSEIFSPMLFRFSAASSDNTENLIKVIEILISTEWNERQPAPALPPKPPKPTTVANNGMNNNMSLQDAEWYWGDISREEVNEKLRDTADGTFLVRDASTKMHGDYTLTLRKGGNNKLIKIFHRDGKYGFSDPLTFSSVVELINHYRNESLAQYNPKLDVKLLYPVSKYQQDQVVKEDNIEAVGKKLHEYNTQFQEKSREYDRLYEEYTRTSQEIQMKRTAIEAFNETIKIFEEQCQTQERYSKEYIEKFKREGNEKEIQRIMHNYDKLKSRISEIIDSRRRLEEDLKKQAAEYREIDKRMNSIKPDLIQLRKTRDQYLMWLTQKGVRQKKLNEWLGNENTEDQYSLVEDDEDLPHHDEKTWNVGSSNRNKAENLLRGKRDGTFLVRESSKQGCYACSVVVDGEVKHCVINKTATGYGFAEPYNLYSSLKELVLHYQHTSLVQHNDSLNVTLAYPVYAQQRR
Compound,IC50 (mTOR kinase),IC50 [1],IC50 [2],IC50 (PC3 cells),IC50 [3],IC50 [4]
"CN(C)C(=O)c1ccc(NC(=O)Nc2ccc(-c3nc(N4CCOCC4)c4ccc(-c5cccc(S(C)(=O)=O)c5)cc4n3)cc2)cc1 [Example 19, 4-(3-{4-[7-(3-methanesulfonyl-phenyl)-4-morpholin-4-yl-quinazolin-2-yl]-phenyl}-ureido)-N,N-dimethyl-benzamide]",< 50 nM,100 to 500 nM,< 50 nM,< 100 nM,100 to 500 nM,< 100 nM
"CNC(=O)c1ccc(NC(=O)Nc2ccc(-c3nc(N4CCOCC4)c4ccc(-c5cccc(S(C)(=O)=O)c5)cc4n3)cc2)cc1 [Example 20, 4-(3-{4-[7-(3-methanesulfonyl-phenyl)-4-morpholin-4-yl-quinazolin-2-yl]-phenyl}-ureido)-N-methyl-benzamide]",< 50 nM,100 to 500 nM,< 50 nM,100 to 500 nM,100 to 500 nM,100 to 500 nM
"CN(C)C(=O)c1ccc(NC(=O)Nc2ccc(-c3nc(N4CCOCC4)c4ccc(-c5cnn(C)c5)cc4n3)cc2)cc1 [Example 22, N,N-dimethyl-4-(3-{4-[7-(1-methyl-1H-pyrazol-4-yl)-4-morpholin-4-yl-quinazolin-2-yl]-phenyl}-ureido)-benzamide]",< 50 nM,100 to 500 nM,< 50 nM,< 100 nM,100 to 500 nM,< 100 nM
"CN(C)C(=O)c1ccc(NC(=O)Nc2ccc(-c3nc(N4CCOCC4)c4ccc(-c5cccc(S(C)(=O)=O)c5)cc4n3)cc2F)cc1 [Example 118, 4-(3-(2-fluoro-4-(7-(3-(methylsulfonyl)phenyl)-4-morpholino-quinazolin-2-yl)phenyl)ureido)-N,N-dimethyl-benzamide]",< 50 nM,,< 50 nM,201 to 10000 nM,501 to 5000 nM,201 to 10000 nM
"CN(C)C(=O)c1ccc(NC(=O)Nc2ccc(-c3nc(N4CCOCC4)c4ccc(-c5ccccn5)cc4n3)cc2)cc1 [Example 155, N,N-dimethyl-4-(3-(4-(4-morpholino-7-(pyridin-2-yl)quinazolin-2-yl)phenyl)ureido)-benzamide]",< 50 nM,,< 50 nM,201 to 10000 nM,< 100 nM,
"CN(C)C(=O)c1ccc(NC(=O)Nc2ccc(-c3nc(N4CCOCC4)c4ccc(-c5ccco5)cc4n3)cn2)cc1 [Example 159, 4-(3-(5-(7-(furan-2-yl)-4-morpholino-quinazolin-2-yl)pyridin-2-yl)ureido)-N,N-dimethyl-benzamide]",201 to 10000 nM,,< 50 nM,< 100 nM,< 100 nM,
"CN(C)C(=O)c1ccc(NC(=O)Nc2ccc(-c3nc(N4CCOCC4)c4ccc(-c5ccco5)cc4n3)cc2)c(F)c1 [Example 160, 3-fluoro-4-(3-(4-(7-(furan-2-yl)-4-morpholino-quinazolin-2-yl)phenyl)ureido)-N,N-dimethyl-benzamide]",50 to 200 nM,,< 50 nM,< 100 nM,501 to 5000 nM,
"CN(C)C(=O)c1ccc(NC(=O)Nc2ccc(-c3nc(N4CCOCC4)c4ccc(-c5ccccn5)cc4n3)cc2)cc1F [Example 267, 2-fluoro-N,N-dimethyl-4-(3-(4-(4-morpholino-7-(pyridin-2-yl)quinazolin-2-yl)phenyl)ureido)-benzamide]",< 50 nM,,< 50 nM,201 to 10000 nM,501 to 5000 nM,
"CN(C)C(=O)c1ccc(NC(=O)Nc2ccc(-c3nc(N4CCOCC4)c4ccc(-c5ccccn5)cc4n3)c(F)c2)cc1 [Example 268, 4-(3-(3-fluoro-4-(4-morpholino-7-(pyridin-2-yl)quinazolin-2-yl)phenyl)ureido)-N,N-dimethyl-benzamide]",< 50 nM,,< 50 nM,201 to 10000 nM,501 to 5000 nM,
"CC(=O)Nc1ccc(NC(=O)Nc2ccc(-c3nc(N4CCOCC4)c4ccc(-c5cncnc5)cc4n3)cc2)cc1 [Example 291, N-(4-(3-(4-(4-morpholino-7-(pyrimidin-5-yl)quinazolin-2-yl)phenyl)ureido)phenyl)-acetamide]",< 50 nM,501 to 5000 nM,< 50 nM,100 to 500 nM,,100 to 500 nM
